Experimental data as given in patent publication US11026931B2, “Methods for the administration of certain VMAT2 inhibitors” (Neurocrine Biosciences, Inc., priority 2018, dated 2021).

Experiments:
[1] = system: prolactin release from the pituitary, modulated through the D2 dopamine receptor; assay: In vivo surrogate measure: prolactin release
[2] = biological target: T1, human VMAT1 transporter (Homo sapiens, UniProt P54219); assay: Uptake in cells expressing VMAT1; assay type: cell-based; conditions: for inhibition of uptake through VMAT1: cells expressing VMAT1, test compounds at concentrations up to 10 μM; for effect on the uptake of monoamines through VMAT1: compared to reserpine
T1 construct: expressed in transfected cells
T1 sequence (P54219 1-525): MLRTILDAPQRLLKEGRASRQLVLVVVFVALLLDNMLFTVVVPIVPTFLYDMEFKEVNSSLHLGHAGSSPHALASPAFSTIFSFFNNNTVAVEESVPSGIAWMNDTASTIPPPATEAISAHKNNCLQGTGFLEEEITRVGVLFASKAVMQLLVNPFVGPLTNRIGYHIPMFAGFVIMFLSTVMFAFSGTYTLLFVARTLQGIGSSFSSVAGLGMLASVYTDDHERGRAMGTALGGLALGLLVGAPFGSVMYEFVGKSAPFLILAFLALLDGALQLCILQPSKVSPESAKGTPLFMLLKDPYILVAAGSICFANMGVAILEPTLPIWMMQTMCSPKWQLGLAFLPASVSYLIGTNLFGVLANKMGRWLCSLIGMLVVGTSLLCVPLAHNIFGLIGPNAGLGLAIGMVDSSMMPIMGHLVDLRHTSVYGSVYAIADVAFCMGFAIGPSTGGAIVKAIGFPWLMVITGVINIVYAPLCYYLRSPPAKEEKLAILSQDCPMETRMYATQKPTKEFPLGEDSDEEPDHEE

[3] = system: ptosis (adrenergic activation); assay: In vivo surrogate measure: ptosis
[4] = Plasma concentrations of circulating metabolites of VBZ; assay type: in vivo; conditions: metabolites formed from VBZ
[5] = system: dopamine, serotonin and adrenergic receptor subtypes; assay: Radioligand binding assays for monoamine receptor subtypes; conditions: for interaction with D1 and D2 receptors: radioligand binding assays and broad panel screen
[6] = Analysis of hypersensitivity and dermatological reactions (case reports); assay type: in vivo
Source text: A total of 17 cases of hypersensitivity reaction and/or dermatological findings and evidence for possible causal relationship with VBZ have been reported either spontaneously (6) or after solicitation (11). Of these 17 cases, 14 cases had both hypersensitivity reaction with dermatological findings (5 were serious and 9 were non-serious).

[7] = of the 14 cases with hypersensitivity reaction and dermatological findings

| inhibition of uptake through VMAT1 [2] | effect on the uptake of monoamines through VMAT1 [2] | SMILES | induction of ptosis [3] | also measured |
| --- | --- | --- | --- | --- |
| no significant inhibitory activity | no significant effect | COc1cc2c(cc1OC)C1CC(=O)C(CC(C)C)CN1CC2 (racemic) [TBZ, 1,3,4,6,7, 11b-hexahydro-9,1O-dimethoxy-3-(2-methylpropyl)-2H-benzo(a)quinolizin-2-one, reference compound] | induced ptosis in an equivalent manner | increase in serum prolactin levels [1]: increase in serum prolactin levels |
| no significant inhibitory activity | no significant effect | COc1cc2c(cc1OC)[C@H]1C[C@@H](OC(=O)[C@@H](N)C(C)(C)O)[C@H](CC(C)C)CN1CC2 [NBI-136110] | – | half-lives of plasma concentration decline [4]: half-lives similar to VBZ |
| – | – | COc1cc2c(cc1OC)[C@@H]1C[C@@H](O)[C@@H](CC(C)C)CN1CC2 [R,S,S-DHTBZ] | – | interaction with D1 and D2 receptors [5]: interact with D1 and D2 receptors |
| – | – | COc1cc2c(cc1OC)[C@@H]1C[C@H](O)[C@@H](CC(C)C)CN1CC2 [S,S,S-DHTBZ] | – | interaction with D1 and D2 receptors [5]: interact with D1 and D2 receptors |
| no significant inhibitory activity | no significant effect | COc1cc2c(cc1OC)[C@H]1C[C@@H](OC(=O)[C@@H](N)C(C)C)[C@H](CC(C)C)CN1CC2 [Valbenazine, (S)-2-amino-3-methyl-butyric acid (2R, 3R,11 bR)-3-isobutyl-9,10-dimethoxy-1,3,4,6,7,11b-hexahydro-2H-pyrido[2,1-a]isoquinolin-2-yl ester] | induced ptosis in an equivalent manner | association with hypersensitivity reactions ([6]; case reports received through 10 Oct. 2017): may be associated with hypersensitivity reactions with or without dermatological reactions; non-serious cases [6, 7]: 9 cases; serious cases [6, 7]: 5 cases; cases with both hypersensitivity reaction and dermatological findings ([6]; of the 17 cases): 14 cases |

| SMILES | inhibition of uptake through VMAT1 [2] | effect on the uptake of monoamines through VMAT1 [2] | induction of ptosis [3] | also measured |
| --- | --- | --- | --- | --- |
| COc1cc2c(cc1OC)[C@H]1C[C@@H](O)[C@H](CC(C)C)CN1CC2 [R,R,R-DHTBZ, (2R, 3R,11bR)-3-isobutyl-9,10-dimethoxy-1,3,4,6,7,11b-hexahydro-2H-pyrido[2,1-a]isoquinolin-2-ol] | no significant inhibitory activity | no significant effect | induced ptosis in an equivalent manner | increase in serum prolactin levels [1]: induced a similar increase in serum prolactin levels as TBZ; half-lives of plasma concentration decline [4]: half-lives similar to VBZ; specificity for the VMAT2 transporter ([5]; versus monoamine receptor subtypes and transporters): high specificity |
| COC(=O)[C@H]1[C@H]2C[C@@H]3c4[nH]c5cc(OC)ccc5c4CCN3C[C@H]2C[C@@H](OC(=O)c2cc(OC)c(OC)c(OC)c2)[C@@H]1OC [reserpine, reference compound] | substantially inhibited uptake through VMAT1 | – | – | – |
